Assay results reported in patent US10125100B2, “Kinase inhibitors” (Respivert Limited, priority 2014, dated 2018).
Each block holds one molecule with its values, some of them ahead of it.

Columns and labels:
B-Raf = B-Raf (Homo sapiens (Human), UniProt P15056); assay: KINOMEscan binding of kinase to standard ligand; details: KINOMEscan technology
Text: (§1) These assays may be conducted by DiscoverX (formerly Ambit; San Diego, Calif.).

B-Raf (V600E) = B-Raf (V600E) (Homo sapiens (Human), UniProt P15056, V600E); assay: KINOMEscan binding of kinase to standard ligand; details: KINOMEscan technology
Text: as §1

mitosis in PBMCs = assay: (g) Cell mitosis assay; assay type: cell-based; details: Homo sapiens, PBMC, 5 μg/mL
Outline: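 Healthy-donor PBMCs stimulated with 2% PHA for 48 hr, then exposed to test compounds at varying concentrations for 20 hr; demecolcine (0.1 μg/mL) added 2 hr before collection for metaphase arrest. Cells fixed/permeabilized, stained with anti-phospho-histone 3 and propidium iodide; mitotic cells counted by flow cytometry gating on lymphocytes.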

[1] = system: LPS-stimulated Lewis rats; assay: (vi) Endotoxin-induced uveitis in rats; assay type: in vivo, rat
Procedure: Male, Lewis rats (6-8 weeks old, Charles River UK Limited) are housed in cages of 3 at 19-21° C. with a 12 h light/dark cycle (07:00/19:00) and fed a standard diet of rodent chow and water ad libitum. Non-fasted rats are weighed, individually identified on the tail with a permanent marker, and receive a single intravitreal administration into the right vitreous humor (5 μL dose volume) of 100 ng/animal of LPS (Escherichia coli 0111:B4 prepared in PBS, Sigma Aldrich, UK) using a 32-gauge needle. Untreated rats are injected with PBS. Test compound or vehicle (4% polyoxyl 40 stearate, 4% mannitol in PBS ([…])) are administered by the topical route onto the right eye (10 μL) of animals 1 hour prior to LPS, at the time of LPS administration, and 1, 2 and 4 hours post LPS administration. Before administration, the solution to be administered is sonicated to ensure a clear solution. 6 hours after LPS dosing, animals are euthanized by overdose with pentobarbitone (via cardiac puncture). Immediately after euthanasia, 10 μL of aqueous humor is collected from the right eye of the rats by puncture of the anterior chamber using a 32 gauge needle under a surgical microscope. The aqueous humor is diluted in 20 μL of PBS and total cell counts are measured immediately using a Countess automated cell counter (Invitrogen). Following collection of the aqueous humour, the right eye of each animal is enucleated and dissected into front (anterior) and back (posterior) sections around the lens. Each section is weighed and homogenised in 500 μL of sterile phosphate buffered saline followed by 20 minutes centrifugation at 12000 rpm at 4° C. The resulting supernatant is divided into 3 aliquots and stored at −80° C. until subsequent cytokine analysis by R&D DuoSet ELISA.

[2] = Stability of pharmaceutical formulations; assay type: physicochemical
Procedure: The samples were sonicated to achieve clear solutions having the following properties: Osmolality (mOsm/kg): 310 (Na), 314 (HCl); pH: 7.00 (Na), 7.05 (HCl). 0.5 mL of the stock solutions were diluted to 1 mL with 20% DMSO in water & injected for purity analysis by HPLC. The remaining stock solutions were then split into aliquots of 0.5 mL in HPLC vials, and stored at various conditions in duplicate. Samples were stored at 5 and 25° C., before being analysed by HPLC at 1, 2 and 4 weeks. Separate samples were stored at 40° C. and analysed at 4 weeks.

[3] = system: eyes of albino New Zealand White rabbits
[4] = system: Salmonella typhimurium, strains TA1535, TA1537, TA98 and TA100; assay: Bacterial reverse mutation screen; details: for toxicity of the test item to the bacteria (mean colony count): at the highest doses (500-5000 μg/plate) in some strains; for mutagenic effects (revertant numbers): plate incorporation, presence and absence of S-9 mix
[5] = system: Escherichia coli, WP2 uvrA; assay: Bacterial reverse mutation screen; details: for mutagenic effects (revertant numbers): plate incorporation, presence and absence of S-9 mix
p38 MAPKα (MAPK14) = p38 MAPKα (MAPK14) (Homo sapiens (Human), UniProt Q16539); assay: p38 MAPKα enzyme inhibition (Method 2), Z-LYTE FRET; assay type: biochemical
Outline: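 Enzyme (200 ng/mL solution) was preincubated 2 h at RT with compound solutions of 1, 0.1, 0.01 or 0.001 μg/mL, and inhibition was read indirectly via MAPKAP-K2 activation/phosphorylation. After a 1 h RT reaction and 1 h protease development, phosphorylation was derived from the coumarin/fluorescein emission ratio.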

c-Src = c-Src (Homo sapiens (Human), UniProt P12931); assay: c-Src enzyme inhibition, Z-LYTE FRET; assay type: biochemical
Outline: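 Z-LYTE FRET peptide phosphorylation read as donor coumarin over acceptor fluorescein ratio after 1 hr protease development. Compounds (1–0.001 μg/mL) preincubated 2 hr at RT with enzyme; ATP solutions 60 μM for Syk, 800 μM for c-Src; kinase reaction 1 hr.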

Syk = Syk (Homo sapiens (Human), UniProt P43405); assay: Syk enzyme inhibition, Z-LYTE FRET; assay type: biochemical
Outline: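 Syk or c-Src enzyme (3000 or 2000 ng/mL solutions) was preincubated 2 h at RT with compound solutions at 1, 0.1, 0.01 or 0.001 µg/mL. Z-LYTE FRET peptide (8 µM solution) and ATP (800 µM solution for c-Src, 60 µM for Syk) were then added for 1 h, followed by protease development for 1 h. Phosphorylation was read as the coumarin/fluorescein emission ratio.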

Jurkat cells = assay: (r) Cell cytotoxicity assay; assay type: cell-based, human; details: 24 hours
Outline: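 Viability read by flow cytometry as the fraction of propidium iodide-negative cells (7.5 μg/mL PI, 15 min), relative to 1.0% DMSO control. Beforehand, 1×10^5 Jurkat cells in RPMI/10% FBS were treated 24 h at 37° C., 5% CO2 with test compound at final 20, 5 or 1 μg/mL.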

[6] = Hydrolytic stability study; assay type: physicochemical; details: DMSO/water (3:1); for % Parent Remaining: 1 mg/mL
Procedure: Chemical stability of compounds of the invention was assessed in a mixture of DMSO and water (3:1) at a test compound concentration of 1 mg/mL.
General HPLC Procedure • Agilent, Waters X-Select C18, 2.5 μm, 4.6×30 mm column, 4 min method, 5-95% MeCN/water (0.1% formic acid). Flow rate 2.5 mL/min. Column Oven Temperature 40° C. Detection 254 nm.
Sample Preparation • A 1.0 mg sample of test compound was dissolved in 750 μL of DMSO. Water (250 μL) was added slowly, ensuring no precipitation occurred.
Recording Stability • A 50 μL aliquot of the test solution was removed and analysed in duplicate by 5 μL HPLC injections. The peak area for the test compound was recorded following manual integration of the corresponding UV trace. • The test solution was heated to 60° C., with stirring, and 50 μL aliquots removed for HPLC analysis at 5 and 24 h timepoints.

non-mutant kinases = assay: KinomeScan selectivity scores; assay type: binding; details: for number of individual kinase hits S(1): % Ctrl <1; for number of individual kinase hits S(10): % Ctrl <10; for number of individual kinase hits S(35): % Ctrl <35; for KinomeScan Selectivity Score S(10): non-mutant kinases with % Ctrl <10 / kinases tested; for KinomeScan Selectivity Score S(35): non-mutant kinases with % Ctrl <35 / kinases tested
Text: as §1

[7] = rats treated with intravitreal endotoxin LPS
[8] = sodium (Na) salt, 1 mg/mL in 10 mM pH 7.2 phosphate buffer, 4.5% mannitol, 3% polyoxyl 40 stearate

Sequence of B-Raf (V600E) (P15056 whole entry V600E): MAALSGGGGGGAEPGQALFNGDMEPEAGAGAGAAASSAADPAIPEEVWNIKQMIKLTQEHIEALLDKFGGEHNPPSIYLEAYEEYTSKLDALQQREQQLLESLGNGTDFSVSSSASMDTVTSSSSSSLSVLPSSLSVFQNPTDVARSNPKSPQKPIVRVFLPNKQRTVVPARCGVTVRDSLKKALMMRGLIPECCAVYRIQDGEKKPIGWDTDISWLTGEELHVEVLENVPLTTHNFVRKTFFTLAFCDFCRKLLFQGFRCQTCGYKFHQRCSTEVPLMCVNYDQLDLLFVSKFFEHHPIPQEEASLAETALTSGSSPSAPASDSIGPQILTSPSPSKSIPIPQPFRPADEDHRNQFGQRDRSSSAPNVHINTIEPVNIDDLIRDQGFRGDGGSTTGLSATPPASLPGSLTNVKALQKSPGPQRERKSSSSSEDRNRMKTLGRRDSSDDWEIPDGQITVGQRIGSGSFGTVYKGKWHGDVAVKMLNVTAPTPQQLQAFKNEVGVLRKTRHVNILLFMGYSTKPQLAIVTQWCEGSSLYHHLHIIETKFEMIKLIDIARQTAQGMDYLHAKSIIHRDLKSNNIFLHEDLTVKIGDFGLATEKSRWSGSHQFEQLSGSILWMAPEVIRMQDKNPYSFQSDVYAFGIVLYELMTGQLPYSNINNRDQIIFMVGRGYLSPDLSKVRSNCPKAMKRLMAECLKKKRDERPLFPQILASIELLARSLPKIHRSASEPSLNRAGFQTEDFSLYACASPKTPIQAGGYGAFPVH
Sequence of B-Raf (P15056 whole entry): as the sequence (P15056 whole entry V600E) above, with E600V counted along it
Sequence of p38 MAPKα (MAPK14) (Q16539 whole entry): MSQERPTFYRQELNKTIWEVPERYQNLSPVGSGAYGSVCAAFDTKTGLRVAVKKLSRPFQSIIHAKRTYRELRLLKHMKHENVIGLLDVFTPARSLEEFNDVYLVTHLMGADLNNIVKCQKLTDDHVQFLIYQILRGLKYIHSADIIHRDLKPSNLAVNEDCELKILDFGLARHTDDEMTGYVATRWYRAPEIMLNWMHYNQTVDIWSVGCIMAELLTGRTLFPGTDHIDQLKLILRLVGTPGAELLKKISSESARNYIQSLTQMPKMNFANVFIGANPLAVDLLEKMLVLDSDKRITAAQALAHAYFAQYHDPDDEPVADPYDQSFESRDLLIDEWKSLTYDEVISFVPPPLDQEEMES
Sequence of c-Src (P12931 whole entry, looked up): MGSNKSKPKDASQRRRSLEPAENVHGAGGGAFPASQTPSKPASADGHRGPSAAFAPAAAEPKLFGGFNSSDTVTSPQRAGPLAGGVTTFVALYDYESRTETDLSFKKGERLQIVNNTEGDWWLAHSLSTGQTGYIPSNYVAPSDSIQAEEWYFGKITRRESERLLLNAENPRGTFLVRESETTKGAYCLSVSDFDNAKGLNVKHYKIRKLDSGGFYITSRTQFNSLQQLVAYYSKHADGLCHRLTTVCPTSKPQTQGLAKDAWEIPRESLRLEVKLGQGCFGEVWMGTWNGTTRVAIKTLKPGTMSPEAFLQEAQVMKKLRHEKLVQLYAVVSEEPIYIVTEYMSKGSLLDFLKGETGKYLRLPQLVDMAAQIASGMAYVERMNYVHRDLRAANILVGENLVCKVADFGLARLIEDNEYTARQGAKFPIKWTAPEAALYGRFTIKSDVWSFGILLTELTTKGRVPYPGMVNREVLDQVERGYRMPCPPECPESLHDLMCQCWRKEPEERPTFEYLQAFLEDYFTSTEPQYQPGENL

Structure (SMILES): COc1cc(Nc2cc(Oc3ccc(NC(=O)Nc4cc(C(C)(C)C)cc(NS(C)(=O)=O)c4OC)c4ccccc34)ccn2)ccc1C(=O)O [Example 1, 4-((4-((4-(3-(5-(tert-Butyl)-2-methoxy-3-(methylsulfonamido)phenyl)ureido)naphthalen-1-yl)oxy)pyridin-2-yl)amino)-2-methoxybenzoic acid]
effect on the binding of B-Raf to its standard ligand (B-Raf): did not have any significant effect | effect on the binding of B-Raf (V600E) to its standard ligand (B-Raf (V600E)): did not have any significant effect | inhibition at 5 µg/mL (mitosis in PBMCs): 2.4% | IL-1β (pg/mL) Anterior tissue ([1]; LPS-stimulated rats, topical 0.01 mg/mL, mean ± SEM): 980.0 ± 110.8 pg/mL | cellular infiltration (cell counts) in the eyes [1, 7]: significantly and dose-dependently reduced | cytokine IL-1β levels in anterior and posterior segments of the eyes [1, 7]: significantly and dose-dependently reduced | stability in solution ([2]; 1 mg/mL formulation, 5° C., up to 4 weeks): stable | pH of solution ([2]; hydrochloride (HCl) salt, 1 mg/mL in 10 mM pH 7.2 phosphate buffer, 4.5% mannitol, 3% polyoxyl 40 stearate): 7.05 | Osmolality [2, 8]: 310 mOsm/kg | pH of solution [2, 8]: 7.00 | local tolerability of the formulations, Phase 2 ([3]; 3 treatment days): acceptable without any aggravation | local tolerability of the formulations, Phase 1 ([3]; after a single dosing day): acceptable | ocular reactions compared with vehicle controls, Phase 1 ([3]; one treatment day, 0.1 and 1.0 mg/mL, four daily instillations): no differences in the frequency, severity and incidence | main ocular reactions, Phase 2 ([3]; three consecutive treatment days, 0.1 and 1.0 mg/mL, four daily instillations): limited to conjunctival redness (grade 1) | toxicity of the test item to the bacteria (mean colony count) [4]: reduction in the mean colony count | mutagenic effects (revertant numbers) [4]: absence of any mutagenic effects | mutagenic effects (revertant numbers) [5]: absence of any mutagenic effects

Structure (SMILES): COc1cc(Nc2cc(Oc3ccc(NC(=O)Nc4cc(C(C)(C)C)cc(NS(C)(=O)=O)c4OC)c4ccccc34)ccn2)ccc1P(C)(=O)O [Example 44, (4-((4-((4-(3-(5-(tert-Butyl)-2-methoxy-3-(methylsulfonamido)phenyl)ureido)naphthalen-1-yl)oxy)pyridin-2-yl)amino)-2-methoxyphenyl)(methyl)phosphinic acid]
effect on the binding of B-Raf to its standard ligand (B-Raf): did not have any significant effect | effect on the binding of B-Raf (V600E) to its standard ligand (B-Raf (V600E)): did not have any significant effect | IC50 (p38 MAPKα (MAPK14)): 11 nM | IC50 (c-Src): 20 nM | IC50 (Syk): 17 nM | % Viability at 1 μg/mL (Jurkat cells): 93.3% | % Viability at 5 μg/mL (Jurkat cells): 90.1% | % Viability at 20 μg/mL (Jurkat cells): 92.2% | % Parent Remaining ([6]; 0 min): 100% | % Parent Remaining ([6]; 60° C., 1439 min): 98% | toxicity of the test item to the bacteria (mean colony count) [4]: reduction in the mean colony count | mutagenic effects (revertant numbers) [4]: absence of any mutagenic effects | toxicity of the test item to the bacteria (mean colony count) ([5]; 5000 μg/plate in WP2 uvrA, absence of S-9 mix): reduction in the mean colony count | mutagenic effects (revertant numbers) [5]: absence of any mutagenic effects

% Parent Remaining ([6]; 0 min): 100% | % Parent Remaining ([6]; 60° C., 297 min): 79% | % Parent Remaining ([6]; 60° C., 1429 min): 18% | decomposition under the conditions of the experiment ([6]; 60° C.): substantial decomposition
Structure (SMILES): C#Cc1cc(Nc2nccc(Oc3ccc(NC(=O)Nc4cc(C(C)C)nn4-c4ccc(C)cc4)c4ccccc34)n2)cc(C(=O)NCCN2CCOCC2)c1 [Reference Compound B, 3-ethynyl-5-((4-((4-(3-(3-isopropyl-1-(p-tolyl)-1H-pyrazol-5-yl)ureido)naphthalen-1-yl)oxy)pyrimidin-2-yl)amino)-N-(2-morpholinoethyl)benzamide, reference compound]

Structure (SMILES): COc1cc(Nc2cc(Oc3ccc(NC(=O)Nc4cc(C(C)(C)C)cc(NS(C)(=O)=O)c4OC)c4ccccc34)ccn2)cc(OC)c1C(=O)NCCOCCOCCOP(=O)(O)O [Example 47, 2-(2-(2-(4-((4-((4-(3-(5-(tert-butyl)-2-methoxy-3-(methylsulfonamido)phenyl)ureido)-naphthalen-1-yl)oxy)pyridin-2-yl)amino)-2,6-dimethoxybenzamido)ethoxy)ethoxy)ethyl dihydrogen phosphate]
effect on the binding of B-Raf to its standard ligand (B-Raf): did not have any significant effect | effect on the binding of B-Raf (V600E) to its standard ligand (B-Raf (V600E)): did not have any significant effect | number of individual kinase hits S(1) (non-mutant kinases; 50 nM): 0 | number of individual kinase hits S(10) (non-mutant kinases; 50 nM): 17 | number of individual kinase hits S(35) (non-mutant kinases; 50 nM): 55 | KinomeScan Selectivity Score S(10) (non-mutant kinases; 50 nM): 0.042 | KinomeScan Selectivity Score S(35) (non-mutant kinases; 50 nM): 0.136 | number of individual kinase hits S(1) (non-mutant kinases; 500 nM): 30 | number of individual kinase hits S(10) (non-mutant kinases; 500 nM): 90 | number of individual kinase hits S(35) (non-mutant kinases; 500 nM): 128 | KinomeScan Selectivity Score S(1) (non-mutant kinases; 500 nM, non-mutant kinases with % Ctrl <1 / kinases tested): 0.074 | KinomeScan Selectivity Score S(10) (non-mutant kinases; 500 nM): 0.223 | KinomeScan Selectivity Score S(35) (non-mutant kinases; 500 nM): 0.318 | IC50 (p38 MAPKα (MAPK14)): 4 nM | IC50 (c-Src): 15 nM | IC50 (Syk): 8 nM | % Viability at 1 μg/mL (Jurkat cells): 91.2% | % Viability at 5 μg/mL (Jurkat cells): 96.0% | % Viability at 20 μg/mL (Jurkat cells): 97.8% | % Parent Remaining ([6]; 0 min): 100% | % Parent Remaining ([6]; 60° C., 317 min): 104% | % Parent Remaining ([6]; 60° C., 1450 min): 89%
